How the values were obtained:
Assay in all cases: cross-linking in cells, immunoblot
Assay type in all cases: cell-based
Conditions in all cases: covalent; living yeast, toxic concentrations
[1] = target: T1, Mpd1 (Saccharomyces cerevisiae, UniProt Q12404)
T1 sequence (Q12404 22-318): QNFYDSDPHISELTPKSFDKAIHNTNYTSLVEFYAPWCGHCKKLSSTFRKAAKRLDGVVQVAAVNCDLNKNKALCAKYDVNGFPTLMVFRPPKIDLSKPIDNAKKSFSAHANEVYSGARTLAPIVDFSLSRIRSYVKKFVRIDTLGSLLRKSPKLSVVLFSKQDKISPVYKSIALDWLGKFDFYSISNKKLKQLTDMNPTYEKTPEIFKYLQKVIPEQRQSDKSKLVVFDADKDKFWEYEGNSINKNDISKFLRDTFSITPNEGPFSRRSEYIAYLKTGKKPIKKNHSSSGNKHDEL

[2] = target: T2, Mpd2 (Saccharomyces cerevisiae, UniProt Q99316)
T2 sequence (Q99316 23-277): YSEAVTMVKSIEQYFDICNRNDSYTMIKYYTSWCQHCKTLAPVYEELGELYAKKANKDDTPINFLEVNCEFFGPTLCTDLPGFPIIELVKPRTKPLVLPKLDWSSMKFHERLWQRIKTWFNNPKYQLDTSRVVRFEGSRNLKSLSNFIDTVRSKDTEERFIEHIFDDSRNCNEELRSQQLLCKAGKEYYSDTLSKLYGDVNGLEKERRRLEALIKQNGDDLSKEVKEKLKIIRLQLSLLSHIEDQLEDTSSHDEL

[3] = target: T3, Eug1 (Saccharomyces cerevisiae, UniProt P32474)
T3 sequence (P32474 30-517): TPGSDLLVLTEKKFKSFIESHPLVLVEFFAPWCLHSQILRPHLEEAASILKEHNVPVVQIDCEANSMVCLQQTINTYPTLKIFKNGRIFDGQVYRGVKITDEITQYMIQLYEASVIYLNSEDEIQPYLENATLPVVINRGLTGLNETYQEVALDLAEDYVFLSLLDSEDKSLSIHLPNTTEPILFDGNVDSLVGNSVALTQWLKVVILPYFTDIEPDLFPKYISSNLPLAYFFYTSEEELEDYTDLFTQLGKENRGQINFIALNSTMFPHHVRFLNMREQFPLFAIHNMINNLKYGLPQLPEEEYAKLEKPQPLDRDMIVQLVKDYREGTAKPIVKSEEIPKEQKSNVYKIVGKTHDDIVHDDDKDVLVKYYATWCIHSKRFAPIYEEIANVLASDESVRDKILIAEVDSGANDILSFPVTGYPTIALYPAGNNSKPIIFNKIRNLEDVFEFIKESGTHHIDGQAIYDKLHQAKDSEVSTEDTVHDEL

[4] = target: T4, Pdi1 (Saccharomyces cerevisiae, UniProt P17967)
T4 sequence (P17967 29-522): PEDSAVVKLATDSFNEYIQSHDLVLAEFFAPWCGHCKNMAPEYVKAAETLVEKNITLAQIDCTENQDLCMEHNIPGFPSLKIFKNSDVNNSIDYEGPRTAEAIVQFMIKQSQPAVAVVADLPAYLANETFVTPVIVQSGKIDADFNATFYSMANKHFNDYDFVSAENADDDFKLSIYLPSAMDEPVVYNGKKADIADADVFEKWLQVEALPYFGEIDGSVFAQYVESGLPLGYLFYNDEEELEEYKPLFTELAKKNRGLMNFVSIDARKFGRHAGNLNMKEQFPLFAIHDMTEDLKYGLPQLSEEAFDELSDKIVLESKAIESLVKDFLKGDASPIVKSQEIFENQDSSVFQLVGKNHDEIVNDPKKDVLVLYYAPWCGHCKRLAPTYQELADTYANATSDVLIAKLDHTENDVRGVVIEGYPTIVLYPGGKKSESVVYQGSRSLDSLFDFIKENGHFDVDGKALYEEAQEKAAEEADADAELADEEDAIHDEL

Q: `C1OC1C1CO1` (stereo not shown) [1,2,3,4-diepoxybutane] was tested. Which “cross-linking in cells, immunoblot” value [1] did it give?
A: Each of these proteins also underwent protein cross-linking in cells treated with toxic concentrations

Q: What about the “cross-linking in cells, immunoblot” value [2] of the same compound?
A: Each of these proteins also underwent protein cross-linking in cells treated with toxic concentrations

Q: What about the “cross-linking in cells, immunoblot” value [3] of the same compound?
A: Each of these proteins also underwent protein cross-linking in cells treated with toxic concentrations

Q: What about the “cross-linking in cells, immunoblot” value [4] of the same compound?
A: Each of these proteins also underwent protein cross-linking in cells treated with toxic concentrations
